According to ChEMBL document CHEMBL4304757, “Synthetic heterocyclic candidates as promising α-glucosidase inhibitors: An overview” (Eur J Med Chem, 2019):

Columns and labels:
[1] = Inhibition of yeast alpha-glucosidase using p-nitrophenyl-alpha-d-glucopyranoside as substrate preincubated for 5 mins followed by substrate addition measured after 5 mins; parameters: species or system Saccharomyces cerevisiae
Alpha glucosidase [2] = biological target: T1, Alpha glucosidase (Homo sapiens, UniProt O43451+P10253+P14410+Q2M2H8); experiment: Inhibition of alpha-glucosidase (unknown origin) using p-nitro phenyl glucopyranoside as substrate preincubated for 10 mins followed by substrate addition measured after 30 mins; assay type: protein assay
Alpha glucosidase [3] = biological target: T1, Alpha glucosidase; experiment: Inhibition of alpha-glucosidase (unknown origin) using p-nitrophenyl-alpha-d-glucopyranoside as substrate preincubated for 10 mins followed by substrate addition measured after 30 mins; assay type: protein assay
MDA-MB-231 = experiment: Cytotoxicity against human MDA-MB-231 cells assessed as reduction in cell viability at 100 uM relative to control; assay type: functional, cell-based; conditions: for IC50: Homo sapiens, MDA-MB-231
Alpha glucosidase [4] = biological target: T1, Alpha glucosidase; experiment: Inhibition of alpha-glucosidase (unknown origin) using p-nitrophenyl-alpha-d-glucopyranoside as substrate preincubated for 5 mins followed by substrate addition measured after 30 mins; assay type: protein assay
[5] = Inhibition of yeast alpha-glucosidase using p-nitrophenyl-alpha-d-glucopyranoside as substrate preincubated for 10 mins followed by substrate addition measured after 20 mins; parameters: species or system Saccharomyces cerevisiae

Q: For O=[N+]([O-])c1ccc2cc(-c3nnc(-c4ccccc4O)o3)oc2c1, which IC50 [1] is on record?
A: 12 to 162 µM

Q: Which IC50 [1] does the source give for O=[N+]([O-])c1ccc2cc(-c3nnc(-c4ccccc4F)o3)oc2c1 here?
A: 12 to 162 µM

Q: For O=[N+]([O-])c1ccc2cc(-c3nnc(-c4cc(O)cc(O)c4)o3)oc2c1, which IC50 [1] is on record?
A: 12 to 162 µM

Q: For COc1ccccc1/C=N/NC(=O)c1nc(-c2cc3ccccc3oc2=O)cs1, which IC50 (Alpha glucosidase [2]) is on record?
A: 6.2 to 81 µM

Q: Which IC50 [1] does the source give for O=[N+]([O-])c1ccc2cc(-c3nnc(-c4cccc(Cl)c4)o3)oc2c1 here?
A: 12 to 162 µM

Q: With COc1ccc(NC(=S)NNC(=O)c2ccc(-c3nnc(-c4ccccc4Cl)o3)cc2)cc1 as the compound, how does the IC50 (Alpha glucosidase [3]) read?
A: 0.4 to 38 µM

Q: Which IC50 (Alpha glucosidase [2]) does the source give for COc1ccc(/C=N/NC(=O)c2nc(-c3cc4ccccc4oc3=O)cs2)c(O)c1 here?
A: 6.2 to 81 µM

Q: Which IC50 (Alpha glucosidase [2]) does the source give for O=C(N/N=C/c1ccc(Cl)cc1)c1nc(-c2cc3ccccc3oc2=O)cs1 here?
A: 6.2 to 81 µM

Q: Which IC50 [1] does the source give for O=[N+]([O-])c1ccc2cc(-c3nnc(-c4ccc(Cl)cc4)o3)oc2c1 here?
A: 12 to 162 µM

Q: Which results are given for Cc1ccccc1N1C(=O)/C(=C/c2ccc(F)cc2)S/C1=N\NC(=O)c1cc2ccccc2oc1=O?
A: Activity (MDA-MB-231): >=76%; IC50 (Alpha glucosidase [4]): 0.09 to 1.6 µM

Q: For O=C(N/N=C/c1ccccc1O)c1nc(-c2cc3ccccc3oc2=O)cs1, which IC50 (Alpha glucosidase [2]) is on record?
A: 6.2 to 81 µM

Q: Which IC50 (Alpha glucosidase [3]) does the source give for O=C(NNC(=S)Nc1cccc(F)c1)c1ccc(-c2nnc(-c3ccccc3Cl)o2)cc1 here?
A: 0.4 to 38 µM

Q: Which IC50 (Alpha glucosidase [3]) does the source give for CCOC(=O)C1=C(Nc2cccc(Br)c2)C[C@@H](c2ccc(Cl)cc2)N(c2cccc(Br)c2)[C@@H]1c1ccc(Cl)cc1 here?
A: 2.3 µM

Q: Which results are given for COc1cccc(N2C(=O)/C(=C/c3ccc(F)cc3)S/C2=N\NC(=O)c2cc3ccccc3oc2=O)c1?
A: Activity (MDA-MB-231): >=76%; IC50 (Alpha glucosidase [4]): 0.09 to 1.6 µM

Q: With O=[N+]([O-])c1ccc2cc(-c3nnc(-c4ccccc4Cl)o3)oc2c1 as the compound, how does the IC50 [1] read?
A: 12 to 162 µM

Q: With O=C(N/N=C/c1ccc(O)c(O)c1)c1nc(-c2cc3ccccc3oc2=O)cs1 as the compound, how does the IC50 (Alpha glucosidase [2]) read?
A: 6.2 to 81 µM

Q: Which IC50 [5] does the source give for N#CC1=C(N)Oc2c(c(=O)[nH]c3c2ccc2ccccc23)C1c1cccc([N+](=O)[O-])c1 (stereo unspecified) here?
A: 10 to 172 µM

Q: Which IC50 [1] does the source give for COc1ccc(O)c(-c2nnc(-c3cc4ccc([N+](=O)[O-])cc4o3)o2)c1 here?
A: 12 to 162 µM

Q: Which Activity (MDA-MB-231) does the source give for Cc1ccc(N2C(=O)/C(=C/c3ccc(F)cc3)S/C2=N\NC(=O)c2cc3ccccc3oc2=O)cc1 here?
A: >=76%

Q: And the IC50 (Alpha glucosidase [4])?
A: 0.09 to 1.6 µM

Q: With Cc1ccc(NC(=S)NNC(=O)c2ccc(-c3nnc(-c4ccccc4Cl)o3)cc2)cc1 as the compound, how does the IC50 (Alpha glucosidase [3]) read?
A: 0.4 to 38 µM

Q: Which results are given for COc1ccc(N2C(=O)/C(=C/c3ccc(F)cc3)S/C2=N\NC(=O)c2cc3ccccc3oc2=O)cc1?
A: Activity (MDA-MB-231): >=76%; IC50 (Alpha glucosidase [4]): 0.09 to 1.6 µM

Q: Which Activity (MDA-MB-231) does the source give for O=C(N/N=C1\S/C(=C\c2ccc(F)cc2)C(=O)N1c1cccc(Cl)c1)c1cc2ccccc2oc1=O here?
A: >=76%

Q: And the IC50 (Alpha glucosidase [4])?
A: > 100 µM

Q: Which IC50 (Alpha glucosidase [3]) does the source give for O=C(NNC(=S)Nc1ccc(C(F)(F)F)cc1)c1ccc(-c2nnc(-c3ccccc3Cl)o2)cc1 here?
A: 0.6 µM

Q: For O=C(N/N=C/c1cccc(Cl)c1)c1nc(-c2cc3ccccc3oc2=O)cs1, which IC50 (Alpha glucosidase [2]) is on record?
A: 6.2 to 81 µM

Q: For Cc1cccc(N2C(=O)/C(=C/c3ccc(F)cc3)S/C2=N\NC(=O)c2cc3ccccc3oc2=O)c1, which Activity (MDA-MB-231) is on record?
A: >=76%

Q: What about the IC50 (Alpha glucosidase [4]) of the same compound?
A: 0.09 to 1.6 µM

Q: What does the source list for O=C(N/N=C1\S/C(=C\c2ccc(F)cc2)C(=O)N1c1ccc(Cl)cc1)c1cc2ccccc2oc1=O?
A: Activity (MDA-MB-231): >=76%; IC50 (Alpha glucosidase [4]): 0.09 to 1.6 µM

Q: For Cc1cc(C)cc(N2C(=O)/C(=C/c3ccc(F)cc3)S/C2=N\NC(=O)c2cc3ccccc3oc2=O)c1, which IC50 (MDA-MB-231) is on record?
A: 0.09 to 1.6 µM

Q: And the IC50 (Alpha glucosidase [4])?
A: 0.09 to 1.6 µM

Q: Which results are given for O=C(N/N=C1\S/C(=C\c2ccc(F)cc2)C(=O)N1c1ccccc1Cl)c1cc2ccccc2oc1=O?
A: IC50 (MDA-MB-231): 0.09 to 1.6 µM; IC50 (Alpha glucosidase [4]): 0.09 to 1.6 µM

Q: Which IC50 (Alpha glucosidase [2]) does the source give for COc1ccc(/C=N/NC(=O)c2nc(-c3cc4ccccc4oc3=O)cs2)cc1 here?
A: 6.2 to 81 µM

Q: For O=C(NNC(=S)Nc1ccc(Cl)cc1)c1ccc(-c2nnc(-c3ccccc3Cl)o2)cc1, which IC50 (Alpha glucosidase [3]) is on record?
A: 0.4 to 38 µM

Q: Which IC50 [1] does the source give for O=[N+]([O-])c1ccc2cc(-c3nnc(-c4cccc(F)c4)o3)oc2c1 here?
A: 12 to 162 µM

Q: With N#CC1=C(N)Oc2c(c(=O)[nH]c3c2ccc2ccccc23)C1c1ccccc1Br (stereo unspecified) as the compound, how does the IC50 [5] read?
A: 10 to 172 µM

Q: Which IC50 [5] does the source give for N#CC1=C(N)Oc2c(c(=O)[nH]c3c2ccc2ccccc23)C1c1ccncc1 (stereo unspecified) here?
A: 10 to 172 µM

Q: Which IC50 [1] does the source give for O=[N+]([O-])c1ccc2cc(-c3nnc(-c4ccc(O)cc4O)o3)oc2c1 here?
A: 12 to 162 µM

Q: With O=C(NNC(=S)Nc1ccc(Br)cc1)c1ccc(-c2nnc(-c3ccccc3Cl)o2)cc1 as the compound, how does the IC50 (Alpha glucosidase [3]) read?
A: 0.4 to 38 µM

Q: For N#CC1=C(N)Oc2c(c(=O)[nH]c3c2ccc2ccccc23)C1c1ccc(Br)cc1 (stereo unspecified), which IC50 [5] is on record?
A: 10 to 172 µM

Q: With O=[N+]([O-])c1ccc2cc(-c3nnc(-c4cccc(O)c4O)o3)oc2c1 as the compound, how does the IC50 [1] read?
A: 12 µM

Q: Which IC50 [5] does the source give for N#CC1=C(N)Oc2c(c(=O)[nH]c3c2ccc2ccccc23)C1c1ccc(Cl)cc1 (stereo unspecified) here?
A: 10 µM

Q: Which IC50 [1] does the source give for O=[N+]([O-])c1ccc2cc(-c3nnc(-c4cc(O)ccc4O)o3)oc2c1 here?
A: 12 to 162 µM

Q: For CN(C)c1ccc(C2C(C#N)=C(N)Oc3c2c(=O)[nH]c2c3ccc3ccccc32)cc1 (stereo unspecified), which IC50 [5] is on record?
A: 10 to 172 µM

Q: For N#CC1=C(N)Oc2c(c(=O)[nH]c3c2ccc2ccccc23)C1c1cccc(F)c1 (stereo unspecified), which IC50 [5] is on record?
A: 10 to 172 µM

Q: Which IC50 [5] does the source give for Cc1ccc(C2C(C#N)=C(N)Oc3c2c(=O)[nH]c2c3ccc3ccccc32)cc1 (stereo unspecified) here?
A: 10 to 172 µM
